{"source": "patent US8883486B2", "about": "“Arrestin biosensor” (Universite de Montreal, priority 2004, dated 2014)", "key": {"V2R [1]": {"biological_target": "T1, V2R (Homo sapiens, UniProt P30518)", "assay": "Intramolecular BRET1 of double-brilliance β-arr (Luc-β-arr-YFP): conformational change of β-arr", "type": "cell-based", "design": "expressed in transfected cells; host or cells: HEK293", "conditions": "HEK293 cells co-expressing V2R and Luc-β-arr-YFP", "protocol": "HEK293 cells were transfected with the indicated plasmids and BRET was measured at 25° C. in the presence of coelenterazine h. […] Data are the mean±s.e.m. of at least three independent experiments. *P<0.01 between treated and control condition.\nThe basal BRET signals were subtracted from each condition to express the data as ligand-induced BRET increase.\nBRET assays. […] Briefly, cells were distributed in 96-well microplates (Corning, Corning, USA) and incubated with or without agonist for the indicated time at 25° C. The appropriate Luc substrate was added to a final concentration of 5 mM, either simultaneously with the agonist (time course) or following agonist treatment (single measurement or dose dependency), and readings were collected using a Multilabel Reader Mithras LB 940 (Berthold Technologies, Bad Wildbad, Germany). […] The BRET signal was determined by calculating the ratio of the light emitted by the fluorescent acceptor and the light emitted by Luc. The values were corrected by subtracting the background BRET signals detected when Luc-β-arr was expressed alone."}, "V2R [2]": {"biological_target": "T1, V2R", "conditions": "ligand is inverse agonist in the AC pathway; leads to activation of the ERK cascade; cited from earlier work"}}, "note": "“Also recorded” adds a separate entry of the source.", "data": [{"compound": "CCOc1ccc2c(c1)C1(CCC(OCCN3CCOCC3)CC1)C(=O)N2S(=O)(=O)c1ccc(C(=O)NC(C)(C)C)cc1OC", "note": "(centres unmarked) [SR121463]", "values": [{"measurement": "ligand-induced intramolecular BRET increase", "setting": "V2R [1]", "value": "significantly lower than that induced by AVP treatment; also recorded: can promote an increase in the BRET signal"}, {"measurement": "recruitment of β-arr", "setting": "V2R [2]", "value": "induced the recruitment of β-arr"}]}]}
